This passage reports IC50 results from US11149018B2, “Substituted N-arylethyl-2-aminoquinoline-4-carboxamides and use thereof” (Bayer Aktiengesellschaft, priority 2017, dated 2021).

The target in this assay is FP receptor (Homo sapiens (Human), UniProt P43088). Description: In vitro test of inhibition of human FP receptor activity (PGF2α-induced calcium flux in FP-expressing CHEM1 cells). The note with it: PGF2α 2 nM, some mean values of multiple determinations. The class given is cell-based. The protocol: B-1. In Vitro Test of Inhibition of Human FP Receptor Activity
Sequence of FP receptor (P43088 whole entry): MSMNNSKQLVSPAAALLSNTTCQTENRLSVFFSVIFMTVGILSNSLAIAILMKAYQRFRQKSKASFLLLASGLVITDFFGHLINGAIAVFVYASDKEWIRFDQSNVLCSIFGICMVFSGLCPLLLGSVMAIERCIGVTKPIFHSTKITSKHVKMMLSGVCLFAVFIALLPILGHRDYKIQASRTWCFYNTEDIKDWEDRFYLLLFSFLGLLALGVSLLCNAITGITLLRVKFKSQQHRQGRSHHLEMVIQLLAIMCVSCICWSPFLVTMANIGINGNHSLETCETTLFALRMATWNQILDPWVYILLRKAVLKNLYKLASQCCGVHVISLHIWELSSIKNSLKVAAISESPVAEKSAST
For the characterization of test substances in respect of FP antagonism, PGF2α-induced calcium flux in FP-expressing CHEM1 cells (Millipore, HTS093C) was used.
10 μl of the prediluted substance solution are added to the Fluo-8-laden cells and incubated at 37° C., 5% CO2 for 10 minutes. The FP receptor is activated by adding 40 μl of 2 nM (final concentration) PGF2α in calcium-free Tyrode, 2 mM CaCl2, 0.002% SmartBlock, and the calcium flux is determined by measuring the fluorescence at ex. 470 nm/[…].
Table 1 below lists the IC50 values from this assay for individual working examples of the invention (some as mean values from multiple independent individual determinations): […]
Background: Calcium assays in cells follow changes in intracellular calcium, usually with a dye or a luminescent sensor.
For the compound `Cc1c(N2CCCC2)nc2ccc(Br)cc2c1C(=O)NCC(CCC(=O)O)c1ccccc1C(F)(F)F` (racemic) [Example 114, (+/−)-5-({[6-Bromo-3-methyl-2-(pyrrolidin-1-yl)quinolin-4-yl]carbonyl}amino)-4-[2-(trifluoromethyl)phenyl]pentanoic acid], the IC50 – broadly, the point on the concentration scale where inhibition reaches its midpoint – was determined as 14 nM.

In the case of `Cc1c(N2CCCC(F)(F)C2)nc2ccc(Br)cc2c1C(=O)NCC(CCC(=O)O)c1ccccc1C(F)(F)F` (racemic) [Example 117, (+/−)-5-({[6-Bromo-2-(3,3-difluoropiperidin-1-yl)-3-methylquinolin-4-yl]carbonyl}amino)-4-[2-(trifluoromethyl)phenyl]pentanoic acid], the IC50 stood at 16 nM.

Regarding `Cc1c(N2CCCCCC2)nc2ccc(Br)cc2c1C(=O)NCC(CCC(=O)O)c1ccccc1C(F)(F)F` (racemic) [Example 120, (+/−)-5-({[2-(Azepan-1-yl)-6-bromo-3-methylquinolin-4-yl]carbonyl}amino)-4-[2-(trifluoromethyl)phenyl]pentanoic acid], the IC50 came to 11 nM.

Turning to `Cc1c(N2CCCCC2)nc2ccc(Br)cc2c1C(=O)NCC(CCC(=O)O)c1ccccc1OC(F)(F)F` (racemic) [Example 126, (+/−)-5-({[6-Bromo-3-methyl-2-(piperidin-1-yl)quinolin-4-yl]carbonyl}amino)-4-[2-(trifluoromethoxy)phenyl]pentanoic acid], the IC50 amounted to 1.7 nM.

On to `Cc1c(N2CCCC2)nc2ccc(Br)cc2c1C(=O)NCC(CCC(=O)O)c1ccccc1OC(F)(F)F` (racemic) [Example 129, (+/−)-5-({[6-Bromo-3-methyl-2-(pyrrolidin-1-yl)quinolin-4-yl]carbonyl}amino)-4-[2-(trifluoromethoxy)phenyl]pentanoic acid], for which the IC50 was found to be 6.1 nM.

For the compound `Cc1c(N2CCCCCC2)nc2ccc(Br)cc2c1C(=O)NCC(CCC(=O)O)c1ccccc1OC(F)(F)F` (racemic) [Example 135, (+/−)-5-({[2-(Azepan-1-yl)-6-bromo-3-methylquinolin-4-yl]carbonyl}amino)-4-[2-(trifluoromethoxy)phenyl]pentanoic acid], the IC50 was 3 nM.

`Cc1c(N2CCCCC2)nc2ccc(Br)cc2c1C(=O)NCC(CCC(=O)O)c1cccc(F)c1Cl` (racemic) [Example 141, (+/−)-5-({[6-Bromo-3-methyl-2-(piperidin-1-yl)quinolin-4-yl]carbonyl}amino)-4-(2-chloro-3-fluorophenyl)pentanoic acid]: the IC50 worked out at 5.8 nM.

For the compound `Cc1c(N2CCCCC2)nc2ccc(Br)cc2c1C(=O)NCC(CCC(=O)O)c1c(Cl)ccc(F)c1F` (racemic) [Example 144, (+/−)-5-({[6-Bromo-3-methyl-2-(piperidin-1-yl)quinolin-4-yl]carbonyl}amino)-4-(6-chloro-2,3-difluorophenyl)pentanoic acid], the IC50 was 2.2 nM.

For `Cc1ccc(F)cc1C(CCC(=O)O)CNC(=O)c1c(C)c(N2CCCCC2)nc2ccc(Br)cc12` (racemic) [Example 147, (+/−)-5-({[6-Bromo-3-methyl-2-(piperidin-1-yl)quinolin-4-yl]carbonyl}amino)-4-(5-fluoro-2-methylphenyl)pentanoic acid], the IC50 stood at 8 nM.

With `Cc1ccc(F)cc1C(CCC(=O)O)CNC(=O)c1c(C)c(N2CCCC(F)(F)C2)nc2ccc(Br)cc12` (racemic) [Example 150, (+/−)-5-({[6-Bromo-2-(3,3-difluoropiperidin-1-yl)-3-methylquinolin-4-yl]carbonyl}amino)-4-(5-fluoro-2-methylphenyl)pentanoic acid], the IC50 is 22 nM.

In the case of `Cc1c(N2CCCC2)nc2ccc(Br)cc2c1C(=O)NCC(CCC(=O)O)c1c(F)ccc(F)c1Cl` (racemic) [Example 154, (+/−)-5-({[6-Bromo-3-methyl-2-(pyrrolidin-1-yl)quinolin-4-yl]carbonyl}amino)-4-(2-chloro-3,6-difluorophenyl)pentanoic acid], the IC50 was found to be 3.4 nM.

As to `Cc1c(N2CCCC(F)(F)C2)nc2ccc(Br)cc2c1C(=O)NCC(CCC(=O)O)c1c(F)ccc(F)c1Cl` (racemic) [Example 155, (+/−)-5-({[6-Bromo-2-(3,3-difluoropiperidin-1-yl)-3-methylquinolin-4-yl]carbonyl}amino)-4-(2-chloro-3,6-difluorophenyl)pentanoic acid], the IC50 was determined as 3 nM.

As to `Cc1c(N2CCCCC2)nc2ccc(Br)cc2c1C(=O)NCC(CCC(=O)O)c1c(F)cccc1C(F)(F)F` (racemic) [Example 160, (+/−)-5-({[6-Bromo-3-methyl-2-(piperidin-1-yl)quinolin-4-yl]carbonyl}amino)-4-[2-fluoro-6-(trifluoromethyl)phenyl]pentanoic acid], the IC50 was determined as 5.3 nM.

As to `Cc1c(N2CCCC2)nc2ccc(Br)cc2c1C(=O)NCC(CCC(=O)O)c1c(F)cccc1C(F)(F)F` (racemic) [Example 163, (+/−)-5-({[6-Bromo-3-methyl-2-(pyrrolidin-1-yl)quinolin-4-yl]carbonyl}amino)-4-[2-fluoro-6-(trifluoromethyl)phenyl]pentanoic acid], the IC50 turned out to be 11 nM.

As for `Cc1c(N2CCCC(F)(F)C2)nc2ccc(Br)cc2c1C(=O)NCC(CCC(=O)O)c1c(F)cccc1C(F)(F)F` (racemic) [Example 166, (+/−)-5-({[6-Bromo-2-(3,3-difluoropiperidin-1-yl)-3-methylquinolin-4-yl]carbonyl}amino)-4-[2-fluoro-6-(trifluoromethyl)phenyl]pentanoic acid], the IC50 was 9.5 nM.

As to `Cc1c(N2CCCCC2)nc2ccc(Br)cc2c1C(=O)NCC(CCC(=O)O)c1c(Cl)ccc(Cl)c1Cl` (racemic) [Example 171, (+/−)-5-({[6-Bromo-3-methyl-2-(piperidin-1-yl)quinolin-4-yl]carbonyl}amino)-4-(2,3,6-trichlorophenyl)pentanoic acid], the IC50 came to 9.4 nM.

For `Cc1c(N2CCCC2)nc2ccc(Br)cc2c1C(=O)NCC(CCC(=O)O)c1c(Cl)ccc(Cl)c1Cl` (racemic) [Example 174, (+/−)-5-({[6-Bromo-3-methyl-2-(pyrrolidin-1-yl)quinolin-4-yl]carbonyl}amino)-4-(2,3,6-trichlorophenyl)pentanoic acid], the half-maximal inhibitory concentration (IC50) was 11 nM.

`Cc1c(N2CCCC(F)(F)C2)nc2ccc(Br)cc2c1C(=O)NCC(CCC(=O)O)c1c(Cl)ccc(Cl)c1Cl` (racemic) [Example 177, (+/−)-5-({[6-Bromo-2-(3,3-difluoropiperidin-1-yl)-3-methylquinolin-4-yl]carbonyl}amino)-4-(2,3,6-trichlorophenyl)pentanoic acid]: the IC50 amounted to 10 nM.

In the case of `Cc1c(N2CCCCC2)nc2ccc(Br)cc2c1C(=O)NCC(CCC(=O)O)c1c(F)cccc1OC(F)F` (racemic) [Example 182, (+/−)-5-({[6-Bromo-3-methyl-2-(piperidin-1-yl)quinolin-4-yl]carbonyl}amino)-4-[2-(difluoromethoxy)-6-fluorophenyl]pentanoic acid], the 50% inhibitory concentration (IC50) worked out at 2.9 nM.

Regarding `CCC1CCCN(c2nc3ccc(Br)cc3c(C(=O)NCC(CCC(=O)O)c3cc(F)ccc3F)c2C)C1` (racemic) [Example 225, 5-[({6-Bromo-2-[3-ethylpiperidin-1-yl]-3-methylquinolin-4-yl}carbonyl)amino]-4-(2,5-difluorophenyl)pentanoic acid], the IC50 is 3.2 nM.

For the compound `CCC1CCCN(c2nc3ccc(Br)cc3c(C(=O)NCC(CCC(=O)O)c3cc(F)ccc3F)c2C)C1` (racemic) [Example 226, (−)-5-[({6-Bromo-2-[3-ethylpiperidin-1-yl]-3-methylquinolin-4-yl}carbonyl)amino]-4-(2,5-difluorophenyl)pentanoic acid], the IC50 was determined as 1.8 nM.

`Cc1ccccc1C(CCC(=O)O)CNC(=O)c1c(C)c(N2CCCC(F)(F)C2)nc2ccc(Br)cc12` (racemic) [Example 229, (+/−)-5-({[6-Bromo-2-(3,3-difluoropiperidin-1-yl)-3-methylquinolin-4-yl]carbonyl}amino)-4-(2-methylphenyl)pentanoic acid]: the IC50 was 13 nM.

As for `Cc1ccccc1C(CCC(=O)O)CNC(=O)c1c(C)c(N2CCCC2)nc2ccc(Br)cc12` (racemic) [Example 232, (+/−)-5-({[6-Bromo-3-methyl-2-(pyrrolidin-1-yl)quinolin-4-yl]carbonyl}amino)-4-(2-methylphenyl)pentanoic acid], the IC50 is 18 nM.

Turning to `Cc1c(N2CCCCC2)nc2ccc(Br)cc2c1C(=O)NCC(CCC(=O)O)c1c(Cl)cccc1Cl` (racemic) [Example 241, (+/−)-5-({[6-Bromo-3-methyl-2-(piperidin-1-yl)quinolin-4-yl]carbonyl}amino)-4-(2,6-dichlorophenyl)pentanoic acid], the IC50 was 12 nM.

Regarding `Cc1ccccc1C(CCC(=O)O)CNC(=O)c1c(C)c(N2CCCCC2)nc2ccc(Br)cc12` (racemic) [Example 242, (+/−)-5-({[6-Bromo-3-methyl-2-(piperidin-1-yl)quinolin-4-yl]carbonyl}amino)-4-(2-methylphenyl)pentanoic acid], the IC50 came to 7.1 nM.

Regarding `Cc1ccccc1C(CCC(=O)O)CNC(=O)c1c(C)c(N2CCCCCC2)nc2ccc(Br)cc12` (racemic) [Example 243, (+/−)-5-({[2-(Azepan-1-yl)-6-bromo-3-methylquinolin-4-yl]carbonyl}amino)-4-(2-methylphenyl)pentanoic acid], the IC50 was determined as 11 nM.

For the compound `Cc1c(N2CCCCC2)nc2ccc(Br)cc2c1C(=O)NCC(CCC(=O)O)c1c(F)cccc1F` (racemic) [Example 244, (+/−)-5-({[6-Bromo-3-methyl-2-(piperidin-1-yl)quinolin-4-yl]carbonyl}amino)-4-(2,6-difluorophenyl)pentanoic acid], the IC50 is 12 nM.
